Reference: US20240408126A1, “BACTERIAL CAPSULAR OLIGOSACCHARIDE DERIVATIVE, PREPARATION METHOD THEREFOR, PHARMACEUTICAL COMPOSITION AND USE THEREOF” (PEKING UNIVERSITY, priority 2021, published 2024)

How the values were obtained:
[1] = system: LPS-induced sepsis model; assay: LPS-induced survival rate in sepsis model of mice; format: in vivo, male C57BL/6 mice; settings: three times, LPS 45 mg/kg, after 72 hours, model group 40%
Protocol: A total of 60 male C57BL/6 mice aged 6-8 weeks, weighing 20±2 g, were selected. The mice were placed in a feeding room with temperature of 20-24° C. and humidity of 50%-60%, and were allowed to drink and eat freely. They were adaptively raised for 7 days before the experiment.
The mice were randomly divided into six groups: control group, model group, CP-1 high dose group (30 mg/kg), CP-1 middle dose group (10 mg/kg), CP-1 low dose group (3 mg/kg), and dexamethasone group, with 10 mice in each group. CP-1 high-dose group was intraperitoneally injected with 200 μL CP-1 solution at the concentration of 30 mg/kg, CP-1 middle-dose group was intraperitoneally injected with equal volume of CP-1 solution at the concentration of 10 mg/kg, CP-1 low-dose group was intraperitoneally injected with equal volume of CP-1 solution at the concentration of 3 mg/kg, dexamethasone group was intraperitoneally injected with equal volume of dexamethasone solution at the concentration of 30 mg/kg, and control group was intraperitoneally injected with equal volume of 0.9% normal saline. Except for the control group, all groups were intraperitoneally injected with 200 μL of LPS solution at 45 mg/kg for modeling. Each group was administered once for a total of three times, 48 hours and 24 hours before modeling, and 30 minutes after modeling. After administration, the state and survival rate of mice were observed and recorded every 6 hours for 72 hours.

[2] = system: LPS-induced inflammatory factors in serum; assay: LPS-induced cytokines in serum of sepsis mouse model (CP-Me); format: in vivo, male C57BL/6 mice; settings: 10 mg/kg and 3 mg/kg intraperitoneal, two times; LPS 25 mg/kg; serum after 12 hours; IL-1β, IL-6, TNF-α; FIG. 7
Protocol: A total of 24 male C57BL/6 mice aged 6-8 weeks, weighing 20±2 g, were selected. The mice were placed in a feeding room with temperature of 20-24° C. and humidity of 50%-60%, and were allowed to drink and eat freely. They were adaptively raised for 7 days before the experiment. Mice were randomly divided into four groups: control group, CP-Me group, LPS group and LPS+CP-Me group, with 6 mice in each group. CP-Me 10 mg/kg group and CP-Me 3 mg/kg group were intraperitoneally injected with 200 μL CP-Me solution at the concentrations of 10 mg/kg and 3 mg/kg, while the control group and LPS group were intraperitoneally injected with equal volume of 0.9% normal saline. LPS group was injected intraperitoneally with 200 μL LPS solution at 25 mg/kg for modeling. Each group was administered once for a total of two times, 12 hours before modeling and 30 minutes after modeling. After 12 hours of administration, the mice were anesthetized and blood was taken from the heart. After the blood stood for 2 hours, it was centrifuged at 5000 rpm for 10 minutes to collect serum. According to the instructions of Elisa kit, the absorbance of each hole was detected by using a multifunctional enzyme-labeled instrument at the wavelength of 450 nm, and the contents of cytokines IL-1β, IL-6, and TNF-α were calculated according to the standard curve.

C[C@@H]1C[C@H]2[C@@H]3CCC4=CC(=O)C=C[C@]4(C)[C@@]3(F)[C@@H](O)C[C@]2(C)[C@@]1(O)C(=O)CO [dexamethasone, reference compound]
survival rate of mice ([1]; 30 mg/kg intraperitoneal): 60%

CO[C@@H]1OC(CO)[C@H](O)C(O[C@H]2OC(C(=O)O)[C@H](O)C(O)C2O[C@@H]2OC(CO)[C@@H](O)C(O[C@@H]3OC(C(=O)O)[C@@H](O)C(O)C3O)C2NC(C)=O)C1NC(C)=O (stereo partly drawn) [CP-Me, methyl β-D-glucopyranuronic acid-(1→3)-2-deoxy-2-acetylamino-β-D-glucopyranosyl-(1→2)-α-D-galactopyranoic acid-(1→3)-2-deoxy-2-acetylamino-α,β-D-galactopyranoside]
effect on LPS-induced inflammatory factors in serum [2]: inhibitory effect

CC(=O)NC1[C@H](OC2[C@@H](O[C@@H]3C(NC(C)=O)C(O)OC(CO)[C@@H]3O)OC(C(=O)O)[C@H](O)[C@@H]2O)OC(CO)[C@@H](O)[C@@H]1O[C@@H]1OC(C(=O)O)[C@@H](O)[C@H](O)C1O (stereo partly drawn) [CP-1, β-D-glucopyranuronic acid-(1→3)-2-deoxy-2-acetylamino-β-D-glucopyranosyl-(1→2)-α-D-galactopyranoic acid-(1→3)-2-deoxy-2-acetylamino-α,β-D-galactopyranoside]
survival rate of mice ([1]; 3 mg/kg (low dose) intraperitoneal): 70%
survival rate of mice ([1]; 10 mg/kg (middle dose) intraperitoneal): 80%
survival rate of mice ([1]; 30 mg/kg intraperitoneal): 70%
